PMC9380671, “Development of spiro-3-indolin-2-one containing compounds of antiproliferative and anti-SARS-CoV-2 properties” (Scientific Reports, 2022)
Where two headings read alike, the source gives them in different places.

Experiments:
AChE = AChE (Homo sapiens, UniProt P22303); assay: AChE inhibition (DTNB, acetylthiocholine); format: biochemical; settings: for IC50: read-out: AChE (IC50, μM) ± SD
Method: All compounds were dissolved in MeOH.

[1] = tested on: A431 (skin squamous) cancer cell line; assay: MTT antiproliferation, A431; format: cell-based, human; settings: for IC50: Homo sapiens; for SI (selectivity index) A431: IC50 of RPE1/IC50 of cancer cell line
Method: (§1) Antiproliferation properties of the targeted agents were investigated by the standard MTT technique against diverse human cancer cell lines [MCF7 (breast), HCT116 (colon), A431 (skin squamous) and PaCa2 (pancreatic)][67] (Table 1, Supplementary Figs. S48‒S51).
(§2) Cells were seeded at concentration of 30000 cells per well in fresh complete growth medium in 96-well tissue culture microtiter plates for 24 h. […] 0.5% DMSO was used as negative control. Triplicate wells were prepared for each individual dose. After 72 h of incubation, medium was aspirated, 40 μl MTT salt (2.5 mg ml^-1) was added to each well and incubated for further 4 h at 37 °C. To stop the reaction and dissolve the formed crystals, 150 μl of 10% sodium dodecyl sulfate (SDS) in deionized water was added to each well and incubated overnight at 37 °C.
(§3) Data were collected as mean values for experiments performed in triplicates for each individual dose which had been measured by MTT assay. […] The cell surviving fraction was calculated according to the following equation.
(§4) Surviving fraction = OpticaldensityO.D.oftreatedcellsO.D.ofcontrolcells
(§5) Statistical calculations for determination of the mean and standard error mean values were determined by SPSS 16 software.

[2] = tested on: PaCa2 (pancreatic) cancer cell line; assay: MTT antiproliferation, PaCa-2; format: cell-based, human; settings: for IC50: Homo sapiens, PaCa-2, 72 h, read-out: IC50 (µM) ± SEM PaCa-2; for SI (selectivity index) PaCa-2: IC50 of RPE1/IC50 of cancer cell line
Method: as §1
Cells were suspended in DMEM medium for MCF7, A431, PaCa-2 and McCoy’s 5A for HCT116 in addition to 1% antibiotic–antimycotic mixture (10000 μg ml^-1 potassium penicillin, 10000 μg ml^-1 streptomycin sulfate and 25 μg ml^-1 amphotericin B), 10% fetal bovine serum and 1% L-glutamine at 37 °C, under 5% CO2 and 95% humidity. Cells were seeded at concentration of 30000 cells per well in fresh complete growth medium in 96-well tissue culture microtiter plates for 24 h. Media was aspirated, fresh complete medium was added and cells were incubated with different concentrations of the tested compound to give a final concentration of [50, 25, 12.5 and 6.25 μM “in addition to 3.125, 1.56 and 0.78 μM in case of high potent analogues”). 0.5% DMSO was used as negative control. Triplicate wells were prepared for each individual dose. After 72 h of incubation, medium was aspirated, 40 μl MTT salt (2.5 mg ml^-1) was added to each well and incubated for further 4 h at 37 °C. To stop the reaction and dissolve the formed crystals, 150 μl of 10% sodium dodecyl sulfate (SDS) in deionized water was added to each well and incubated overnight at 37 °C. The absorbance was then measured at 570 nm and a reference wavelength of 595 nm.
as §3, §4
(§6) Statistical calculations for determination of the mean and standard error mean values were determined by SPSS 16 software. The observed anti-proliferative properties are presented in Table 1 (Supplementary Figs. S48‒S52).

[3] = tested on: MCF7 (breast) cancer cell line; assay: MTT antiproliferation, MCF7; format: cell-based, human; settings: for IC50: Homo sapiens, MCF7, 72 h, read-out: IC50 (µM) ± SEM MCF7; for SI (selectivity index) MCF7: IC50 of RPE1/IC50 of cancer cell line
Method: as §1, §2, §3, §4, §5

[4] = MTT cytotoxicity assay (CC50); format: cell-based; settings: African green monkey, VERO-E6 cells
Method: The cytotoxic activity of the compounds was tested in VERO-E6 cells by using the 3-(4,5-dimethylthiazol-2-yl)-2,5-diphenyltetrazolium bromide (MTT) method with minor modifications. Briefly, the cells were seeded in 96 well-plates […] at a density of 3 x 10^5 cell/ml and incubated for 24 h at 37 °C in 5% CO2. After 24 h, cells were treated with various concentrated of the tested compounds in triplicates. 24 h later, the supernatant was discarded and cell monolayers were washed with sterile 1x phosphate buffer saline (PBS) 3 times and MTT solution (20 µl of 5 mg/ml) was added to each well and incubated at 37 °C for 4 h followed by medium aspiration. In each well, the formed formazan crystals were dissolved with 200 µl of acidified isopropanol (0.04 M HCl in absolute isopropanol = 0.073 ml HCl in 50 ml isopropanol). Eventually, the absorbance was measured at λmax 570 nm using the Anthos Zenyth 200rt plate reader (Anthos Labtec Instruments, Heerhugowaard, Netherlands). The cytotoxicity of various concentrations compared to the untreated cells was determined using nonlinear regression analysis by plotting log inhibitor versus normalized response.^12^-14

[5] = tested on: HCT116 (colon) cancer cell line; assay: MTT antiproliferation, HCT116; format: cell-based, human; settings: for IC50: Homo sapiens, HCT-116, 72 h, read-out: IC50 (µM) ± SEM HCT116; for SI (selectivity index) HCT116: IC50 of RPE1/IC50 of cancer cell line
Method: as §1, §2, §3, §4, §5

[6] = tested on: SARS-CoV-2 (hCoV-19/Egypt/NRC-03/2020); assay: Vero-E6 cell viral infection model, anti-SARS-CoV-2 IC50 (CPE, crystal violet); format: cell-based; settings: for IC50: Severe acute respiratory syndrome coronavirus 2, Vero C1008; for SI = CC50/IC50: Vero-E6, SARS-CoV-2
BChE = BChE (Homo sapiens, UniProt P06276); assay: BChE inhibition (DTNB, butyrylthiocholine iodide)
[7] = tested on: RPE1 (normal human immortalized retinal pigment epithelial cell line); assay: MTT toxicity towards normal cells, RPE1; format: cell-based; settings: RPE-1, read-out: IC50 (µM) ± SEM RPE1
Method: The safety of the synthesized agents against non-cancer/normal RPE1 (retinal pigment epithelium) cell line was assessed (Table 1, Supplementary Fig. S52). The SI (selectivity index) for the tested compounds against RPE1 cell line confirms the safety towards non-cancer cells. […] Compound 6d and 6h which are also of high anti-PaCa2 show remarkable SI values (SI = > 3.8, > 3.6, respectively).
The agents synthesized were also tested against RPE1 (normal human immortalized retinal pigment epithelial cell line) cell (in DMEM-F12 medium) to determine the toxicity/selectivity towards normal cells relative to the cancer cell lines utilized.
as §6

EGFR = biological target: T1, EGFR (Homo sapiens, UniProt P00533); format: cell-based; settings: western blot, MCF7, compound at its MTT IC50; for EGFR RQ (relative quantification): control RQ 3.4461
T1 construct: Western blot technique was considered for EGFR and VEGFR-2 properties determination; endogenous in cells; host or cells: MCF7 (breast cancer cell line)
Text: (§7) The western blot technique was applied utilizing the IC50 observed for each respective agent synthesized during MTT assay[85],[86]. Consideration of multi-targeted inhibitory properties investigation is based in the fact that cancer initiation and proliferation sometimes utilizes many receptors or signaling pathways.
(§8) Western blot technique was considered for EGFR and VEGFR-2 properties determination utilizing the IC50 observed of each respective agent synthesized during MTT assay against MCF7 (breast) cancer cell line. All the studies were conducted according to the manufacturer’s instruction.^10,^11

VEGFR-2 = biological target: T2, VEGFR-2 (Homo sapiens, UniProt P35968); format: cell-based; settings: western blot, MCF7, compound at its MTT IC50; for VEGFR-2 RQ (relative quantification): control RQ 3.2634
T2 construct: Western blot technique was considered for EGFR and VEGFR-2 properties determination; endogenous in cells; host or cells: MCF7 (breast cancer cell line)
Text: as §7, §8

[8] = A-431, 72 h, read-out: IC50 (µM) ± SEM A431
[9] = A-431, read-out: Observed log(IC50, μM) (A431) (converted)
[10] = Vero-E6, 72 h, reduction of virus-induced CPE, read-out: IC50 (µM) SARS-CoV-2
[11] = log of observed IC50 in μM, read-out: Observed log(IC50, μM) (SARS-CoV-2) (converted)

T1 sequence (P00533 25-1210): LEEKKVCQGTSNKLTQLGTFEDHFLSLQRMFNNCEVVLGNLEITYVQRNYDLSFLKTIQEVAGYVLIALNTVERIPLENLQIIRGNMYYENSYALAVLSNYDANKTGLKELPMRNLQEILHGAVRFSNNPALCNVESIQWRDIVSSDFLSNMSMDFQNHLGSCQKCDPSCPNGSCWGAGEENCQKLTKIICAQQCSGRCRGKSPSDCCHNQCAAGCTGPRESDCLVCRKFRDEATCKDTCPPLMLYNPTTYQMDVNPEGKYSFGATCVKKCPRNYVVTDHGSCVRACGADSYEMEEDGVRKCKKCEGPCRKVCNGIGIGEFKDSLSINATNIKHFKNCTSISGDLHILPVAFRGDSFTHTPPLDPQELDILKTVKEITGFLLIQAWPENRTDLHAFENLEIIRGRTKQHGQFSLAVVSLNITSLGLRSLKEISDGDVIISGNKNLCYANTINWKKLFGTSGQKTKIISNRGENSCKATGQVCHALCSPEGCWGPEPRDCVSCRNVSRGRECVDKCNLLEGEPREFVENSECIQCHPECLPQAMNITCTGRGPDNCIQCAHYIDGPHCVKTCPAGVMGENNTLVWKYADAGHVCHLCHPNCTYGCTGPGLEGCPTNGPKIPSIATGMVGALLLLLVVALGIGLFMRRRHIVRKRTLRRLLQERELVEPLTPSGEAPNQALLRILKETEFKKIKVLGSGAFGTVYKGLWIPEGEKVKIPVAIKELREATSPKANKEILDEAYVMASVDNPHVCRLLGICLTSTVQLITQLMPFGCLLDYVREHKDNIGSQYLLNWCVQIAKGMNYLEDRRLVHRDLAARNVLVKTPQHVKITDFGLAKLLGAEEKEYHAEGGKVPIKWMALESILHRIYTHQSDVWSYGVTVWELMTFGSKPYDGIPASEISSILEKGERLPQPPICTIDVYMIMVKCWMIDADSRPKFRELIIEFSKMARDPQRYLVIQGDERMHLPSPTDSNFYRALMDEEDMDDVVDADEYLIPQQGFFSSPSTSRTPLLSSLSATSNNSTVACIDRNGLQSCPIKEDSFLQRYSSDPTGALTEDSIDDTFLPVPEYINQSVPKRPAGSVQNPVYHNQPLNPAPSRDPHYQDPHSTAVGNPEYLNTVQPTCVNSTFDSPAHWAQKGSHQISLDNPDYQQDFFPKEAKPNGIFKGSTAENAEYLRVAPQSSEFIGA
AChE, sequence (P22303 32-614): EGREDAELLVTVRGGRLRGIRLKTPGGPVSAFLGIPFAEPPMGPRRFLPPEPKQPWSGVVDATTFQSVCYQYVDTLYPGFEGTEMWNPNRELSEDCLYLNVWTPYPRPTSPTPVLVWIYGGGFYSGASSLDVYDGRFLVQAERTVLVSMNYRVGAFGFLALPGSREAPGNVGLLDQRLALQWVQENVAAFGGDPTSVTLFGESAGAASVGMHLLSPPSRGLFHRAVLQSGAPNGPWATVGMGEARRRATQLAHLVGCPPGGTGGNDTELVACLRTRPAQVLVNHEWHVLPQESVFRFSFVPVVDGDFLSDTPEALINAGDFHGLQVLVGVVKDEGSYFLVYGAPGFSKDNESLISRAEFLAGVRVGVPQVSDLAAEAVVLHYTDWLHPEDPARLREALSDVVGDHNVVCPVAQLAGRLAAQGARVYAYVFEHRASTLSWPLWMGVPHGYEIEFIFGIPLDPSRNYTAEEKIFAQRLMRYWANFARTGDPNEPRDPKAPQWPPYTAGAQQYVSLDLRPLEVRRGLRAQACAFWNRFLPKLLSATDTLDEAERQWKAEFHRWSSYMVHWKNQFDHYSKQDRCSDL
T2 sequence (P35968 20-1356): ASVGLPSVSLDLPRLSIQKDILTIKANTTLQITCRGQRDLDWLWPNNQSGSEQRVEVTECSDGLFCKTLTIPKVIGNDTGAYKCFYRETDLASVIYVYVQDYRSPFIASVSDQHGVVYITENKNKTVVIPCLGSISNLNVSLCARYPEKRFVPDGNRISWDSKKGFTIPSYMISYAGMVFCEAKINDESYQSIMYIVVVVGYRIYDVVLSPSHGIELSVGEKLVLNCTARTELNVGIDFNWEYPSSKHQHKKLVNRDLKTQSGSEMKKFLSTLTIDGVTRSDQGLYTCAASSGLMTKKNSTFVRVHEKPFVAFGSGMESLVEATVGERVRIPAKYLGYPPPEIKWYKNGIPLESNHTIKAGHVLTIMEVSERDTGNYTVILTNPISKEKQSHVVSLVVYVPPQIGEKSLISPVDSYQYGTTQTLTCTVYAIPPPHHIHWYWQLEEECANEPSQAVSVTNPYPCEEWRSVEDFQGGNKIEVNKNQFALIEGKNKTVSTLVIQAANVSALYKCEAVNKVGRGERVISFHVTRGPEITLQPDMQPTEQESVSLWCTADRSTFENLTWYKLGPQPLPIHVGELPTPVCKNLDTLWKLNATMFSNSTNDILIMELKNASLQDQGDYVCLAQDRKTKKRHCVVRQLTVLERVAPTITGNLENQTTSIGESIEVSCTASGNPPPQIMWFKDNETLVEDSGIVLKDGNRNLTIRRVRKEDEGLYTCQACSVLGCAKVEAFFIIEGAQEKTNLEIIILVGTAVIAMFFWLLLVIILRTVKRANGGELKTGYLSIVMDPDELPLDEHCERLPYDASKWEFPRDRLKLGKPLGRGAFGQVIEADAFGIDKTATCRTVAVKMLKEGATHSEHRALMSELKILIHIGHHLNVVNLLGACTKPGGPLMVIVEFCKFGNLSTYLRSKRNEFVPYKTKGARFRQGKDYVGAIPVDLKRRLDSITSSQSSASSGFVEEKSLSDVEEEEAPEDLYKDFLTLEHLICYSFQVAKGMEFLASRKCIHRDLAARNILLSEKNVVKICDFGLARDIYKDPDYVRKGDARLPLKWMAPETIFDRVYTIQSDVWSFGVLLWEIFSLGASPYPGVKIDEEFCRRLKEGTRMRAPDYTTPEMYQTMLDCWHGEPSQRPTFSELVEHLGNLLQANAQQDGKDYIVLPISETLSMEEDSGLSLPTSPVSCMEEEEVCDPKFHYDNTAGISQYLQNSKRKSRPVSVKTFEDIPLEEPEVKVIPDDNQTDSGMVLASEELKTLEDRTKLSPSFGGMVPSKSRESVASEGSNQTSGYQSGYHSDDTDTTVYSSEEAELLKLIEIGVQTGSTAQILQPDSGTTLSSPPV
BChE, sequence (P06276 29-602, species assumed): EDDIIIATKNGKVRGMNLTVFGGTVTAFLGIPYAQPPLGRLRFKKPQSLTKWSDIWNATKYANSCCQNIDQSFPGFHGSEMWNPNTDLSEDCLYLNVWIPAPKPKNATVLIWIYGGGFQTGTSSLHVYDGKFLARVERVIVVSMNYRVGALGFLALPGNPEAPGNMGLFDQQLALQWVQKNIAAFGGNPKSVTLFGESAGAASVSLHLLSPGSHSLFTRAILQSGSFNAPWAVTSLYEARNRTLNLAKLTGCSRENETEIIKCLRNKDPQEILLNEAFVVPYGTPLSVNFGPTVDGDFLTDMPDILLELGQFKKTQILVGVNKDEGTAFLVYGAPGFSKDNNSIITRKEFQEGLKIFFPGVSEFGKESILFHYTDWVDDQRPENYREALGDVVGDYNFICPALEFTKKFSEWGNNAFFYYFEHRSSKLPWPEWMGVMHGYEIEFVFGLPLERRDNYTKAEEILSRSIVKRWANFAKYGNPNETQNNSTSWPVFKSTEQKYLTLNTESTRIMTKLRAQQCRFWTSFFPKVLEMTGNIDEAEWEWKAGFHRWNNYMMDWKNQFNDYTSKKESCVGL

SMILES	SI = IC50 (AChE)/IC50 (BChE) (AChE)	IC50 (AChE) [µM]	IC50 [1, 8] [µM]	IC50 [1, 9] [µM]	SI (selectivity index) A431 [1]	IC50 [2] [µM]	SI (selectivity index) PaCa-2 [2]	IC50 [3] [µM]	SI (selectivity index) MCF7 [3]	CC50 at 24 h [4] [µM]	IC50 [5] [µM]	SI (selectivity index) HCT116 [5]	IC50 [6, 10] [µM]	IC50 [6, 11] [µM]	SI = CC50/IC50 [6]	IC50 (BChE) [µM]	IC50 [7] [µM]	EGFR % Inhibition (EGFR) [%]	EGFR RQ (relative quantification) (EGFR)	VEGFR-2 % Inhibition (VEGFR-2) [%]	also measured
CN1CC(c2ccc(F)cc2)C2(CN(S(C)(=O)=O)C/C(=C\c3ccc(F)cc3)C2=O)C12C(=O)Nc1ccc(Cl)cc12 (centres unmarked) [Compound 6f, (E)-5-Chloro-5″-(4-fluorobenzylidene)-4′-(4-fluorophenyl)-1′-methyl-1″-(methylsulfonyl)dispiro[indoline-3,2′-pyrrolidine-3′,3″-piperidine]-2,4″-dione]	1.0	3.89 ± 1.66	4.76 ± 0.37	4.76	3.7	11.7 ± 0.94	1.5	5 ± 0.39	3.6	67.8	5.43 ± 0.46	3.3	7.67	7.67	8.8	3.75 ± 0.71	17.8 ± 0.87	69.3	1.058	64.7	times the potency of chloroquine against SARS-CoV-2 ([6]; ratio of IC50 values): about 3.3 times; times the potency of hydroxychloroquine against SARS-CoV-2 ([6]; ratio of IC50 values): ~4.8 times; VEGFR-2 RQ (relative quantification) (VEGFR-2): 1.153
CCS(=O)(=O)N1C/C(=C\c2ccc(F)cc2)C(=O)C2(C1)C(c1ccc(F)cc1)CN(C)C21C(=O)Nc2ccccc21 (centres unmarked) [Compound 6g, (E)-1″-(Ethylsulfonyl)-5″-(4-fluorobenzylidene)-4′-(4-fluorophenyl)-1′-methyldispiro[indoline-3,2′-pyrrolidine-3′,3″-piperidine]-2,4″-dione]	0.8	2.46 ± 0.99	6.17 ± 0.44	6.17	5.4	28.4 ± 0.85	1.2	10.3 ± 0.86	3.2	79.2	4.94 ± 0.25	6.8	16.9	16.9	4.7	3.22 ± 0.92	33.4 ± 1.22	62.8	1.28	63.7	VEGFR-2 RQ (relative quantification) (VEGFR-2): 1.186
